# Laboratory results reported in PubChem BioAssay AID2060890 (Molecular Pharmacology Branch, DTP, NCI, 2025).
# Tested on: LG0703-F948-PDC complex spheroid viability
# Test: Anticancer human tumor LG0703-F948-PDC patient-derived lung adenocarcinoma cell line growth inhibition [RAS]
# Settings: for IC50: curve of first compound; for viability, T/C: stronger effect = lower value
# Text: RAS pathway inhibitors in Combinations in Complex Spheroids
# A high-throughput screen of multi-cell type tumor spheroids was designed to identify active combinations of RAS pathway inhibitors and targeted small molecules. Complex spheroids include a stromal component modeled by human endothelial cells (HUVEC) and fibroblasts modeled by human mesenchymal stem cells (MSCs). The concentration ranges selected for each drug and investigational agent were based upon clinically achievable concentrations if the clinical Cmax of the agent was known.
# Compounds. The drugs and investigational agents: abemaciclib (NSC768073), cobimetinib (NSC768068), divarasib (GDC6063, NSC841802), docetaxel (NSC628503), GDC-1971 (RLY-1971, NSC841576), gemcitabine (NSC613327), inavolisib (NSC800729), ipatasertib (NSC767898), KB-0742 (NSC834161), MRTX-1133 (NSC836407), osimertinib (NSC779217), RMC-4630 (NSC839698), RMC-6236 (NSC851965), RMC-6291 (NSC852671), Ro-3306 (NSC812927), sapanisertib (NSC764658), SN-38 (NSC673596), staurosporine (NSC755774), SY5609 (NSC837396), and tovorafenib (DAY101, NSC766906), were obtained from the National Cancer Institute (NCI) Developmental Therapeutics Program Chemical Repository. The FDA-approved anticancer drug set is available from the NCI Developmental Therapeutics Program. […] The stock solutions were prepared in dimethyl sulfoxide (DMSO, Sigma-Aldrich, St. Louis, MO, cat. D2650) at 800-fold the tested concentration and stored at -70 degrees C prior to their use. All drugs and investigational agents were tested over a range starting from a high concentration at or near the clinical Cmax and decreasing in half-log increments. If the clinical Cmax for an agent had not been determined, the highest concentration tested was 10 microM.
# Cell Culture. All cells were maintained in an incubator at 37 degrees C and 5% CO2 with 95% humidity. The PDC lines were cultured according to standard operating procedures established by the NCI PDMR. All PDCs were thawed and cultured in Matrigel-coated flasks prepared with a working solution of 1X Ham's F-12 nutrient mix, without supplementation (Invitrogen, Waltham, MA, cat. 11765054), 100 U/mL penicillin-streptomycin (Invitrogen, cat. 15140122), and 2.5% Matrigel (Corning Inc., Corning, NY, cat. 354248) for the first three passages. The 362531-283-R-J2-PDC and 782815-120-R-J1-PDC lines were cultured in 6C/Colon 1B media, which includes advanced DMEM/F-12 (Thermo Fisher Scientific, cat. 12634028), 10 mM HEPES (Thermo Fisher Scientific, cat. 15630080), 1X GlutaMAX supplement (Thermo Fisher Scientific, cat. 35050061), 0.1 mg/mL primocin (InvivoGen, San Diego, CA, cat. ant-pm-2), 10% defined fetal bovine serum, heat inactivated (HyClone Laboratories Inc., Logan, UT, cat. SH30070.03HI), 50% L-WRN conditioned media (ATCC, cat. CRL-3276), 1.25 mM N-Acetyl-L-cysteine (Sigma-Aldrich, cat. A9165), 10 mM nicotinamide (Sigma-Aldrich, cat. N0636), 1X B-27 supplement (Thermo Fisher Scientific, cat. 17504044), 1X N-2 supplement (Thermo Fisher Scientific, cat. 17502048), 50 ng/mL human EGF (Thermo Fisher Scientific, cat. PHG0311), and 10 microM Y-27632 dihydrochloride (Tocris Bioscience, cat. 1254). The K12877-001-R-J1-PDC line was cultured in 6I media, which includes all 6C/Colon 1B media plus 10 ng/mL human FGF-10 (PeproTech, cat. 100-26), 1 ng/mL human FGF-2 (PeproTech, cat. 100-18B), 1 µM prostaglandin E2 (Tocris Bioscience, cat. 2296), […] hydrocortisone (Sigma-Aldrich, cat. H4001), and […] bovine insulin (Sigma-Aldrich, cat. I6634). The K86415-001-R-J1-PDC line was cultured in 6D media, which includes all 6C/Colon 1B media components minus the L-WRN conditioned media. The 485176-168-R4-J1-PDC was cultured in PANC media, which includes all 6C/Colon 1B media plus 100 ng/mL human FGF-10 (PeproTech, cat. 100-26), 500 nM SB-431542 (Selleckchem, cat. S1067), and 10 nM gastrin (Tocris Bioscience, cat. 3006). […]
# 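Also: spheroids exposed to agents for 7 days.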
# 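For viability, T/C in this document: 100% = DMSO vehicle wells.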
smiles,measurement,setting,value
CC1(C)CCC(Nc2ncc(C(F)(F)F)c(-c3c[nH]c4c(P(C)(C)=O)c(C#N)ccc34)n2)CN1 (configuration not stated) + CCn1c(-c2cc(N3CCN(C)CC3)cnc2C(C)OC)c2c3cc(ccc31)-c1csc(n1)CC(NC(=O)C1CC1C)C(=O)N1CCCC(N1)C(=O)OCC(C)(C)C2,IC50,second compound 0.000949 µM,> 300 nM
same,IC50,second compound 0.003 µM,< 0.949 nM
same,IC50,second compound 0.00949 µM,< 0.949 nM
same,IC50,second compound 0.03 µM,< 0.949 nM
same,IC50,second compound 0.0949 µM,< 0.949 nM
same,IC50,second compound 0.3 µM,< 0.949 nM
same,"viability, T/C","second compound 0.000949 µM, first compound 0.000949 µM",70.9%
same,"viability, T/C","second compound 0.000949 µM, first compound 0.003 µM",58.2%
same,"viability, T/C","second compound 0.000949 µM, first compound 0.00949 µM",54.9%
same,"viability, T/C","second compound 0.000949 µM, first compound 0.03 µM",64.2%
same,"viability, T/C","second compound 0.000949 µM, first compound 0.0949 µM",69.8%
same,"viability, T/C","second compound 0.000949 µM, first compound 0.3 µM",66%
same,"viability, T/C","second compound 0.003 µM, first compound 0.000949 µM",50.5%
same,"viability, T/C","second compound 0.003 µM, first compound 0.003 µM",38.7%
same,"viability, T/C","second compound 0.003 µM, first compound 0.00949 µM",43.2%
same,"viability, T/C","second compound 0.003 µM, first compound 0.03 µM",39%
same,"viability, T/C","second compound 0.003 µM, first compound 0.0949 µM",40.1%
same,"viability, T/C","second compound 0.003 µM, first compound 0.3 µM",44.5%
same,"viability, T/C","second compound 0.00949 µM, first compound 0.000949 µM",27.3%
same,"viability, T/C","second compound 0.00949 µM, first compound 0.003 µM",26.4%
same,"viability, T/C","second compound 0.00949 µM, first compound 0.00949 µM",25.1%
same,"viability, T/C","second compound 0.00949 µM, first compound 0.03 µM",31.8%
same,"viability, T/C","second compound 0.00949 µM, first compound 0.0949 µM",26.6%
same,"viability, T/C","second compound 0.00949 µM, first compound 0.3 µM",33.8%
same,"viability, T/C","second compound 0.03 µM, first compound 0.000949 µM",15.2%
same,"viability, T/C","second compound 0.03 µM, first compound 0.003 µM",14.4%
same,"viability, T/C","second compound 0.03 µM, first compound 0.00949 µM",17.2%
same,"viability, T/C","second compound 0.03 µM, first compound 0.03 µM",19.4%
same,"viability, T/C","second compound 0.03 µM, first compound 0.0949 µM",18.3%
same,"viability, T/C","second compound 0.03 µM, first compound 0.3 µM",20.3%
same,"viability, T/C","second compound 0.0949 µM, first compound 0.000949 µM",12.3%
same,"viability, T/C","second compound 0.0949 µM, first compound 0.003 µM",11.9%
same,"viability, T/C","second compound 0.0949 µM, first compound 0.00949 µM",12.3%
same,"viability, T/C","second compound 0.0949 µM, first compound 0.03 µM",12.9%
same,"viability, T/C","second compound 0.0949 µM, first compound 0.0949 µM",14.1%
same,"viability, T/C","second compound 0.0949 µM, first compound 0.3 µM",9.28%
same,"viability, T/C","second compound 0.3 µM, first compound 0.000949 µM",9.53%
same,"viability, T/C","second compound 0.3 µM, first compound 0.003 µM",9.6%
same,"viability, T/C","second compound 0.3 µM, first compound 0.00949 µM",8.69%
same,"viability, T/C","second compound 0.3 µM, first compound 0.03 µM",12.3%
same,"viability, T/C","second compound 0.3 µM, first compound 0.0949 µM",12.7%
same,"viability, T/C","second compound 0.3 µM, first compound 0.3 µM",10.1%
CC(Nc1ccc2c(c1)OCCn1cc(N3C(=O)OCC3C(F)F)nc1-2)C(N)=O (configuration not stated),"viability, T/C",compound 0.0316 µM,96.2% [middle of 4 runs]
same,"viability, T/C",compound 0.1 µM,88.9% [middle of 4 runs]
same,"viability, T/C",compound 1 µM,56.3% [middle of 4 runs]
same,"viability, T/C",compound 3.16 µM,45% [middle of 4 runs]
same,"viability, T/C",compound 10 µM,27.8% [middle of 4 runs]
